# Laboratory results published in US8759098B2, “Method for cloning pluripotent stem cells” (Boston Biomedical Research Institute, Inc., priority 2009, dated 2014).
# What was measured:
# Assay type in all cases: cell-based, mouse
# [1] = tested on: SACK-responsive, Pdx1-positive Panstra-25 pancreatic stem cells; assay: Gene-free iPSC reprogramming on STO feeders, colony phenotypes, Panstra-25; conditions: Panstra-25; hiFBS, 1 mM Xn
# Description: (§1) Each tested SACK-derived cell strain was cultured on STO cell feeder monolayers in control medium with 10% DFBS, dialyzed fetal bovine serum (DFBS) or either of two commercial media for culture of murine embryonic stem cells (ESCs) and for the culture of reprogrammed cells such as iPSCs. Each medium condition was evaluated with or without supplementation with 1 mM xanthine (Xn). P/S denotes routine use of the antibiotics penicillin and streptomycin.
# (§2) The method is an original pharmacological procedure for producing pluripotent stem cells. Cell strains derived in xanthine (Xn)-supplemented medium, by the method of suppression of asymmetric cell kinetics (SACK), were cultured in commercial media specified for the culture and/or production of pluripotent stem cells such as embryonic stem cells and iPSCs. Approximately 150,000 cells were plated on confluent STO cell feeders (i.e., mouse embryonic fibroblasts pre-treated with mitomycin C) in 10-cm culture dishes. In 2 weeks, iPSC-like cell colonies were detected.
# (§3) To establish clonal strains, single colonies were picked, cultured in individual wells, and expanded for further study and cryo-preservation. A high fraction of the derived cell clones have morphological and biochemical properties indicative of iPSC cells.
# (§4) Tissue-specific stem cells (e.g., Panstra-25 and Panstra-12 mouse pancreatic stem cell strains in the instant example) were cultured on mitomycin C-treated STO cell monolayers in commercial embryonic stem cell medium supplemented with the purine salvage base xanthine at 1 mM concentration (FIG. 4). Within 2-3 weeks of culture under otherwise standard conditions, cell colonies with embryonic stem cell-like morphology developed (FIG. 7B). These colonies were removed by mild trypsin treatment, transferred to individual cell culture wells prepared with STO cell feeders, and expanded in the respective embryonic stem cell culture medium supplemented with 1 mM xanthine (FIG. 5). The expanded cell clones expressed alkaline phosphatase (FIG. 8), a biochemical biomarker for the pluripotent phenotype of embryonic stem cells and iPSC cells. […] Xn supplementation increased the average production efficiency by as much as 3-fold (Table 6).
# [2] = tested on: SACK-responsive, Pdx1-negative Panstra-12 pancreatic stem cells; assay: Gene-free iPSC reprogramming on STO feeders, colony phenotypes, Panstra-12; conditions: for Estimated gene-free iPSC colony formation efficiency, ES, AP+ (iPSC state) / Estimated gene-free iPSC colony formation efficiency, ES, AP− / Estimated gene-free iPSC colony formation efficiency, Fl, AP+ / Estimated gene-free iPSC colony formation efficiency, Fl, AP− / Phenotype ES, AP+ (iPSC state) of individual cell clones following expansion, clones/total / Phenotype ES, AP+ (iPSC state) of individual cell clones following expansion, percent / Phenotype ES, AP− of individual cell clones following expansion, clones/total / Phenotype ES, AP− of individual cell clones following expansion, percent / Phenotype Fl, AP+ of individual cell clones following expansion, clones/total / Phenotype Fl, AP+ of individual cell clones following expansion, percent / Phenotype Fl, AP− of individual cell clones following expansion, clones/total / Phenotype Fl, AP− of individual cell clones following expansion, percent: Panstra-12, 1 mM Xn
# Description: as §1, §2, §3, §4
# [3] = tested on: Panstra 11; assay: Gene-free iPSC reprogramming, Panstra 11; conditions: Panstra 11, SACK agent Xn
# Description: as §1, §2
# (§5) Tissue-specific stem cells (e.g., Panstra-25 and Panstra-12 mouse pancreatic stem cell strains in the instant example) were cultured on mitomycin C-treated STO cell monolayers in commercial embryonic stem cell medium supplemented with the purine salvage base xanthine at 1 mM concentration (FIG. 4). […]
# [4] = tested on: Panstra 56; assay: Gene-free iPSC reprogramming, Panstra 56; conditions: Panstra 56, SACK agent Xn
# Description: as §1, §2, §5
# [5] = tested on: Panstra 11; assay: SACK responsiveness (cell kinetics, colony formation), Panstra 11; design: key: SACK-responsive (R); non-responsive (NR); conditions: Panstra 11, SACK agent Xn
# Description: (§6) Cells were plated at colony forming density in SACK-free culture medium (Control) or culture medium supplemented to 1 mM concentration with the SACK agents xanthosine (Xs), xanthine (Xn), or hypoxanthine (Hx).
# (§7) The terms “SACK-R” and “Xn-responsive” are used interchangeably. Xn-responsive cells are not transformed cells.
# (§8) In the example, the differentiated cells are adult mouse pancreatic islet cells and Xn is the chemical compound used to suppress asymmetric cell kinetics (SACK). […] These Xn-treated and Xn-responsive cells then proceeded to express alkaline phosphatase, a known enzyme marker that is highly expressed in undifferentiated cells such as primordial germ cells (FIG. 8), after culture in media that support the proliferation of mouse pluripotent stem cells. Under these conditions, these Xn-expanded and Xn-responsive cells also multiply to form colonies that take on a clonal mouse embryonic stem cell-like morphology in culture, resembling a compact clump of round tiny cells, the clump having a smooth and well defined edge (FIG. 7B).
# (§9) The SACK-derived clonal pancreatic cell strains have properties of either beta-cell precursors (Pdx1+) or more primitive pancreatic cells (Pdx1−). In the colony formation analyses, three hundred (300) cells were plated in replicate (n=3) 30-mm diameter culture dishes. […] Ten days later, plates were stained with crystal violet and colonies counted. […]
# [6] = tested on: Panstra 12; assay: SACK responsiveness (cell kinetics, colony formation), Panstra 12; design: key: SACK-responsive (R); non-responsive (NR); conditions: Panstra 12, SACK agent Xn
# Text: as §7, §8
# (§10) The SACK-derived clonal pancreatic cell strains have properties of either beta-cell precursors (Pdx1+) or more primitive pancreatic cells (Pdx1−). In the colony formation analyses, three hundred (300) cells were plated in replicate (n=3) 30-mm diameter culture dishes. Twenty-four hours later, the culture medium was replaced with the medium supplemented with SACK agents as indicated. Ten days later, plates were stained with crystal violet and colonies counted. Xs, xanthosine; Xn, xanthine; Hx hypoxanthine.
# [7] = tested on: Panstra 25; assay: SACK responsiveness (cell kinetics, colony formation), Panstra 25; design: key: SACK-responsive (R); non-responsive (NR); conditions: Panstra 25, SACK agent Xn
# Description: as §6, §7, §8, §9
# [8] = tested on: Panstra 56; assay: SACK responsiveness (cell kinetics, colony formation), Panstra 56; design: key: SACK-responsive (R); non-responsive (NR); conditions: Panstra 56, SACK agent Xn
# Text: as §7, §8, §10
# [9] = tested on: SACK-R strain Panstra-25; assay: Insulin expression by immunofluorescence, pancreatic differentiation; conditions: routine culture conditions with Xn supplementation, three days
# Text: Upper panels, routine culture conditions with Xn supplementation; lower panels, Xn-free differentiation conditions. DAPI, detection of corresponding cell nuclei. The expression of insulin was detected by immunofluorescence (data not shown). In order to study the formation of islet-like clusters after induction of differentiation in Xn-free medium, pancreatic beta-cell differentiation was induced by plating the cells on a poly-D-lysine substrate and changing growth medium to medium containing 1% dialysed fetal bovine serum, 20 ng/mL epidermal growth factor (EGF), 10 mM nicotinamide, and 25 mM glucose. […] Insulin was expressed in cells differentiated in Xn-free conditions after three days. The expression of insulin was detected by immunofluorescence (data not shown). DAPI, detection of corresponding cell nuclei. […] These properties of self-renewal in an undifferentiated state and the ability to produce differentiated pancreatic cells define the SACK-R strains as pancreatic tissue stem cells.
smiles,measurement,setting,value
"O=c1[nH]c(=O)c2[nH]cnc2[nH]1 [Xn, xanthine]","Phenotype Fl, AP− of individual cell clones following expansion, percent",[1],26%
same,iPSC (gene-free iPSC reprogramming),"[2]; Panstra 12, SACK agent Xn",Yes
same,"Estimated gene-free iPSC colony formation efficiency, ES, AP+ (iPSC state)",[2]; DFBS,0.000%
same,"Estimated gene-free iPSC colony formation efficiency, ES, AP−",[2]; DFBS,0.047%
same,"Estimated gene-free iPSC colony formation efficiency, Fl, AP+",[2]; DFBS,0.027%
same,"Estimated gene-free iPSC colony formation efficiency, Fl, AP−",[2]; DFBS,0.080%
same,"Phenotype ES, AP+ (iPSC state) of individual cell clones following expansion, clones/total",[2]; DFBS,0/23
same,"Phenotype ES, AP+ (iPSC state) of individual cell clones following expansion, percent",[2]; DFBS,0%
same,"Phenotype ES, AP− of individual cell clones following expansion, clones/total",[2]; DFBS,7/23
same,"Phenotype ES, AP− of individual cell clones following expansion, percent",[2]; DFBS,31%
same,"Phenotype Fl, AP+ of individual cell clones following expansion, clones/total",[2]; DFBS,4/23
same,"Phenotype Fl, AP+ of individual cell clones following expansion, percent",[2]; DFBS,17%
same,"Phenotype Fl, AP− of individual cell clones following expansion, clones/total",[2]; DFBS,12/23
same,"Phenotype Fl, AP− of individual cell clones following expansion, percent",[2]; DFBS,52%
same,"Estimated gene-free iPSC colony formation efficiency, ES, AP+ (iPSC state)",[2]; KOSR,0.067%
same,"Estimated gene-free iPSC colony formation efficiency, ES, AP−",[2]; KOSR,0.033%
same,"Estimated gene-free iPSC colony formation efficiency, Fl, AP+",[2]; KOSR,0.007%
same,"Estimated gene-free iPSC colony formation efficiency, Fl, AP−",[2]; KOSR,0.007%
same,"Phenotype ES, AP+ (iPSC state) of individual cell clones following expansion, clones/total",[2]; KOSR,10/17
same,"Phenotype ES, AP+ (iPSC state) of individual cell clones following expansion, percent",[2]; KOSR,59%
same,"Phenotype ES, AP− of individual cell clones following expansion, clones/total",[2]; KOSR,5/17
same,"Phenotype ES, AP− of individual cell clones following expansion, percent",[2]; KOSR,29%
same,"Phenotype Fl, AP+ of individual cell clones following expansion, clones/total",[2]; KOSR,1/17
same,"Phenotype Fl, AP+ of individual cell clones following expansion, percent",[2]; KOSR,6%
same,"Phenotype Fl, AP− of individual cell clones following expansion, clones/total",[2]; KOSR,1/17
same,"Phenotype Fl, AP− of individual cell clones following expansion, percent",[2]; KOSR,6%
same,"Estimated gene-free iPSC colony formation efficiency, ES, AP+ (iPSC state)",[2]; hiFBS,0.020%
same,"Estimated gene-free iPSC colony formation efficiency, ES, AP−",[2]; hiFBS,0.033%
same,"Estimated gene-free iPSC colony formation efficiency, Fl, AP+",[2]; hiFBS,0.000%
same,"Estimated gene-free iPSC colony formation efficiency, Fl, AP−",[2]; hiFBS,0.073%
same,"Phenotype ES, AP+ (iPSC state) of individual cell clones following expansion, clones/total",[2]; hiFBS,3/19
same,"Phenotype ES, AP+ (iPSC state) of individual cell clones following expansion, percent",[2]; hiFBS,16%
same,"Phenotype ES, AP− of individual cell clones following expansion, clones/total",[2]; hiFBS,5/19
same,"Phenotype ES, AP− of individual cell clones following expansion, percent",[2]; hiFBS,26%
same,"Phenotype Fl, AP+ of individual cell clones following expansion, clones/total",[2]; hiFBS,0/19
same,"Phenotype Fl, AP+ of individual cell clones following expansion, percent",[2]; hiFBS,0%
same,"Phenotype Fl, AP− of individual cell clones following expansion, clones/total",[2]; hiFBS,11/19
same,"Phenotype Fl, AP− of individual cell clones following expansion, percent",[2]; hiFBS,58%
same,"higher rate of iPSC-like colony production, average","[2]; Pdx1− strain supplemented with Xn, p=0.024",3 fold
same,increase of the conversion rate to iPSC,"[2]; Xn in the iPSC media at 1 mM, strain not given",approximately 3 fold
same,increase of the average production efficiency of iPSC-like cell clones,[2]; Xn supplementation (Table 6),≤ 3 fold
same,iPSC (gene-free iPSC reprogramming),[3],No
same,iPSC (gene-free iPSC reprogramming),[4],No
same,SACK Type,[5],NR
same,SACK Type,[6],R
same,SACK Type,[7],R
same,SACK Type,[8],NR
same,expression of insulin (immunofluorescence),[9],no expressed insulin was detectable
